In patent US20230398130A1, “METHODS AND COMPOSITIONS FOR DIFFERENTIATING STEM CELLS” (Massachusetts Institute of Technology, priority 2020, published 2023):

Key:
ISC-enriched organoids [1] = experiment: Primary screen, 384-well 2.5-D organoid differentiation (ENR+CD, 6 days): carbachol-induced lysozyme secretion (LYZ.S); assay type: cell-based, murine; conditions: for Dose.FC.LYZ.S: FC vs plate median; for Z.LYZ.S: standard z score; for SSMD.LYZ.S: strictly standardized mean difference; for Dose.FC.LYZ.S (log 2 fold change): vs plate median
Excerpt: (§1) High-throughput screening.

ISC-enriched organoids [2] = experiment: Primary screen, 384-well 2.5-D organoid differentiation (ENR+CD, 6 days, Target Selective Inhibitor Library, vs whole-plate median): ATP (CellTiter-Glo 3D, CTG); conditions: for Dose.FC.CTG: FC vs plate median; for SSMD.CTG: strictly standardized mean difference; for Dose.FC.CTG (log 2 fold change): vs plate median
ISC-enriched organoids [3] = experiment: Primary screen, 384-well 2.5-D organoid differentiation (ENR+CD, 6 days): basal lysozyme secretion (LYZ.NS); assay type: cell-based, murine; conditions: for Dose.FC.LYZ.NS: FC vs plate median; for SSMD.LYZ.NS: strictly standardized mean difference; for Dose.FC.LYZ.NS (log 2 fold change): vs plate median
Excerpt: as §1

[4] = primary screen, 1st of the 4 dose lines of the treatment (dose not given)
[5] = primary screen, 2nd of the 4 dose lines of the treatment (dose not given)
[6] = primary screen, 3rd of the 4 dose lines of the treatment (dose not given)
[7] = primary screen, 4th of the 4 dose lines of the treatment (dose not given)
[8] = Dose 0.08 uM, primary screen, standard z score
[9] = Dose 0.40 uM, primary screen, standard z score
[10] = Dose 2.00 uM, primary screen, standard z score
[11] = Dose 10.00 uM, primary screen, standard z score
[12] = Dose 0.08 uM, standard z score of FC
[13] = Dose 0.40 uM, standard z score of FC
[14] = Dose 2.00 uM, standard z score of FC
[15] = Dose 10.00 uM, standard z score of FC

Question: Which results are given for `CC(C)c1ccc(NC(=O)Cn2cnc3c2c(=O)n(C)c(=O)n3C)cc1` [HC-030031]?
Answer: Dose.FC.LYZ.S (ISC-enriched organoids [1]; Dose 0.08 uM, primary screen): 0.090 log 2 fold change; Dose.FC.LYZ.S (ISC-enriched organoids [1]; Dose 0.40 uM, primary screen): 0.097 log 2 fold change; Dose.FC.LYZ.S (ISC-enriched organoids [1]; Dose 2.00 uM, primary screen): −0.035 log 2 fold change; Dose.FC.LYZ.S (ISC-enriched organoids [1]; Dose 10.00 uM, primary screen): 0.077 log 2 fold change; Z.LYZ.S (ISC-enriched organoids [1]; [4]): 0.584; Z.LYZ.S (ISC-enriched organoids [1]; [5]): 0.627; Z.LYZ.S (ISC-enriched organoids [1]; [6]): −0.225; Z.LYZ.S (ISC-enriched organoids [1]; [7]): 0.499; SSMD.LYZ.S (ISC-enriched organoids [1]; [4]): 0.499; SSMD.LYZ.S (ISC-enriched organoids [1]; [5]): 0.539; SSMD.LYZ.S (ISC-enriched organoids [1]; [6]): −0.200; SSMD.LYZ.S (ISC-enriched organoids [1]; [7]): 0.322; Dose.FC.CTG (ISC-enriched organoids [2]; Dose 0.08 uM, primary screen): 0.082 log 2 fold change; Z.CTG (ISC-enriched organoids [2]; [8]): 0.195; Dose.FC.CTG (ISC-enriched organoids [2]; Dose 0.40 uM, primary screen): 0.191 log 2 fold change; Z.CTG (ISC-enriched organoids [2]; [9]): 0.457; Dose.FC.CTG (ISC-enriched organoids [2]; Dose 2.00 uM, primary screen): −0.008 log 2 fold change; Z.CTG (ISC-enriched organoids [2]; [10]): −0.019; Dose.FC.CTG (ISC-enriched organoids [2]; Dose 10.00 uM, primary screen): −0.241 log 2 fold change; Z.CTG (ISC-enriched organoids [2]; [11]): −0.575; SSMD.CTG (ISC-enriched organoids [2]; [4]): 0.200; SSMD.CTG (ISC-enriched organoids [2]; [5]): 0.606; SSMD.CTG (ISC-enriched organoids [2]; [6]): −0.025; SSMD.CTG (ISC-enriched organoids [2]; [7]): −0.715; Dose.FC.LYZ.NS (ISC-enriched organoids [3]; Dose 0.08 uM, primary screen): 0.063 log 2 fold change; Z.LYZ.NS (ISC-enriched organoids [3]; [8]): 0.547; Dose.FC.LYZ.NS (ISC-enriched organoids [3]; Dose 0.40 uM, primary screen): 0.033 log 2 fold change; Z.LYZ.NS (ISC-enriched organoids [3]; [9]): 0.291; Dose.FC.LYZ.NS (ISC-enriched organoids [3]; Dose 2.00 uM, primary screen): −0.007 log 2 fold change; Z.LYZ.NS (ISC-enriched organoids [3]; [10]): −0.057; Dose.FC.LYZ.NS (ISC-enriched organoids [3]; Dose 10.00 uM, primary screen): −0.047 log 2 fold change; Z.LYZ.NS (ISC-enriched organoids [3]; [11]): −0.411; SSMD.LYZ.NS (ISC-enriched organoids [3]; [4]): 0.506; SSMD.LYZ.NS (ISC-enriched organoids [3]; [5]): 0.276; SSMD.LYZ.NS (ISC-enriched organoids [3]; [6]): −0.048; SSMD.LYZ.NS (ISC-enriched organoids [3]; [7]): −0.383

Question: With `Cc1ccc(-n2nccn2)c(C(=O)N2CCN(c3nc4cc(Cl)ccc4o3)CC[C@H]2C)c1` [Suvorexant (MK-4305)] as the molecule, how does the “Dose.FC.LYZ.S (log 2 fold change)” value (ISC-enriched organoids [1]; Dose 0.08 uM, primary screen) read?
Answer: 0.186

Question: And the “Dose.FC.LYZ.S (log 2 fold change)” value (ISC-enriched organoids [1]; Dose 0.40 uM, primary screen)?
Answer: 0.142

Question: What about the “Dose.FC.LYZ.S (log 2 fold change)” value (ISC-enriched organoids [1]; Dose 2.00 uM, primary screen) of the same molecule?
Answer: 0.101

Question: And the “Dose.FC.LYZ.S (log 2 fold change)” value (ISC-enriched organoids [1]; Dose 10.00 uM, primary screen)?
Answer: 0.131

Question: What about the “Z.CTG (standard z score)” value (ISC-enriched organoids [2]; Dose 0.08 uM, primary screen) of the same molecule?
Answer: 0.458

Question: What about the “Dose.FC.CTG (log 2 fold change)” value (ISC-enriched organoids [2]; Dose 0.08 uM, primary screen) of the same molecule?
Answer: 0.192

Question: What about the “Z.CTG (standard z score)” value (ISC-enriched organoids [2]; Dose 0.40 uM, primary screen) of the same molecule?
Answer: 0.609

Question: What about the “Dose.FC.CTG (log 2 fold change)” value (ISC-enriched organoids [2]; Dose 0.40 uM, primary screen) of the same molecule?
Answer: 0.255

Question: What about the “Z.CTG (standard z score)” value (ISC-enriched organoids [2]; Dose 2.00 uM, primary screen) of the same molecule?
Answer: 0.895

Question: And the “Dose.FC.CTG (log 2 fold change)” value (ISC-enriched organoids [2]; Dose 2.00 uM, primary screen)?
Answer: 0.375

Question: And the “Z.CTG (standard z score)” value (ISC-enriched organoids [2]; Dose 10.00 uM, primary screen)?
Answer: 0.597

Question: What about the “Dose.FC.CTG (log 2 fold change)” value (ISC-enriched organoids [2]; Dose 10.00 uM, primary screen) of the same molecule?
Answer: 0.250

Question: And the “Z.LYZ.NS (standard z score)” value (ISC-enriched organoids [3]; Dose 0.08 uM, primary screen)?
Answer: 1.775

Question: What about the “Dose.FC.LYZ.NS (log 2 fold change)” value (ISC-enriched organoids [3]; Dose 0.08 uM, primary screen) of the same molecule?
Answer: 0.204

Question: What about the “Z.LYZ.NS (standard z score)” value (ISC-enriched organoids [3]; Dose 0.40 uM, primary screen) of the same molecule?
Answer: 1.073

Question: What about the “Dose.FC.LYZ.NS (log 2 fold change)” value (ISC-enriched organoids [3]; Dose 0.40 uM, primary screen) of the same molecule?
Answer: 0.123

Question: And the “Z.LYZ.NS (standard z score)” value (ISC-enriched organoids [3]; Dose 2.00 uM, primary screen)?
Answer: 1.073

Question: What about the “Dose.FC.LYZ.NS (log 2 fold change)” value (ISC-enriched organoids [3]; Dose 2.00 uM, primary screen) of the same molecule?
Answer: 0.123

Question: What about the “Z.LYZ.NS (standard z score)” value (ISC-enriched organoids [3]; Dose 10.00 uM, primary screen) of the same molecule?
Answer: 0.670

Question: And the “Dose.FC.LYZ.NS (log 2 fold change)” value (ISC-enriched organoids [3]; Dose 10.00 uM, primary screen)?
Answer: 0.077

Question: `C[C@@H](Oc1cc(-n2cnc3ccc(CN4CCN(C)CC4)cc32)sc1C(N)=O)c1ccccc1C(F)(F)F` [GSK461364] was tested. Which Dose.FC.LYZ.S (ISC-enriched organoids [1]; Dose 0.08 uM, primary screen) did it give?
Answer: 0.112 log 2 fold change

Question: What about the Dose.FC.LYZ.S (ISC-enriched organoids [1]; Dose 0.40 uM, primary screen) of the same molecule?
Answer: −0.093 log 2 fold change

Question: And the Dose.FC.LYZ.S (ISC-enriched organoids [1]; Dose 2.00 uM, primary screen)?
Answer: −0.352 log 2 fold change

Question: And the Dose.FC.LYZ.S (ISC-enriched organoids [1]; Dose 10.00 uM, primary screen)?
Answer: −0.390 log 2 fold change

Question: What about the Dose.FC.CTG (ISC-enriched organoids [2]; Dose 0.08 uM, primary screen) of the same molecule?
Answer: 0.160 log 2 fold change

Question: What about the Z.CTG (ISC-enriched organoids [2]; [8]) of the same molecule?
Answer: 0.383

Question: What about the Dose.FC.CTG (ISC-enriched organoids [2]; Dose 0.40 uM, primary screen) of the same molecule?
Answer: −0.154 log 2 fold change

Question: And the Z.CTG (ISC-enriched organoids [2]; [9])?
Answer: −0.368

Question: What about the Dose.FC.CTG (ISC-enriched organoids [2]; Dose 2.00 uM, primary screen) of the same molecule?
Answer: −0.628 log 2 fold change

Question: What about the Z.CTG (ISC-enriched organoids [2]; [10]) of the same molecule?
Answer: −1.500

Question: And the Dose.FC.CTG (ISC-enriched organoids [2]; Dose 10.00 uM, primary screen)?
Answer: −0.621 log 2 fold change

Question: What about the Z.CTG (ISC-enriched organoids [2]; [11]) of the same molecule?
Answer: −1.484

Question: And the Dose.FC.LYZ.NS (ISC-enriched organoids [3]; Dose 0.08 uM, primary screen)?
Answer: 0.078 log 2 fold change

Question: What about the Z.LYZ.NS (ISC-enriched organoids [3]; [8]) of the same molecule?
Answer: 0.682

Question: And the Dose.FC.LYZ.NS (ISC-enriched organoids [3]; Dose 0.40 uM, primary screen)?
Answer: −0.096 log 2 fold change

Question: What about the Z.LYZ.NS (ISC-enriched organoids [3]; [9]) of the same molecule?
Answer: −0.834

Question: And the Dose.FC.LYZ.NS (ISC-enriched organoids [3]; Dose 2.00 uM, primary screen)?
Answer: −0.246 log 2 fold change

Question: What about the Z.LYZ.NS (ISC-enriched organoids [3]; [10]) of the same molecule?
Answer: −2.138

Question: And the Dose.FC.LYZ.NS (ISC-enriched organoids [3]; Dose 10.00 uM, primary screen)?
Answer: −0.287 log 2 fold change

Question: And the Z.LYZ.NS (ISC-enriched organoids [3]; [11])?
Answer: −2.498

Question: With `C[C@H]1COC2=C1C(=O)C(=O)c1c2ccc2c1CCCC2(C)C` [Cryptotanshinone] as the molecule, how does the Dose.FC.LYZ.S (ISC-enriched organoids [1]; Dose 0.08 uM, ENR+CD, 6 days) read?
Answer: 0.156 log 2 fold change

Question: And the Dose.FC.LYZ.S (ISC-enriched organoids [1]; Dose 0.40 uM, ENR+CD, 6 days)?
Answer: −0.105 log 2 fold change

Question: And the Dose.FC.LYZ.S (ISC-enriched organoids [1]; Dose 2.00 uM, ENR+CD, 6 days)?
Answer: −0.288 log 2 fold change

Question: What about the Dose.FC.LYZ.S (ISC-enriched organoids [1]; Dose 10.00 uM, ENR+CD, 6 days) of the same molecule?
Answer: −0.432 log 2 fold change

Question: What about the Dose.FC.CTG (ISC-enriched organoids [2]; Dose 0.08 uM, ENR+CD, 6 days) of the same molecule?
Answer: 0.199 log 2 fold change

Question: What about the Z.CTG (ISC-enriched organoids [2]; [12]) of the same molecule?
Answer: 0.475

Question: And the Dose.FC.CTG (ISC-enriched organoids [2]; Dose 0.40 uM, ENR+CD, 6 days)?
Answer: −0.027 log 2 fold change

Question: And the Z.CTG (ISC-enriched organoids [2]; [13])?
Answer: −0.065

Question: And the Dose.FC.CTG (ISC-enriched organoids [2]; Dose 2.00 uM, ENR+CD, 6 days)?
Answer: −0.184 log 2 fold change

Question: And the Z.CTG (ISC-enriched organoids [2]; [14])?
Answer: −0.439

Question: What about the Dose.FC.CTG (ISC-enriched organoids [2]; Dose 10.00 uM, ENR+CD, 6 days) of the same molecule?
Answer: −0.541 log 2 fold change

Question: What about the Z.CTG (ISC-enriched organoids [2]; [15]) of the same molecule?
Answer: −1.292

Question: What about the Dose.FC.LYZ.NS (ISC-enriched organoids [3]; Dose 0.08 uM, ENR+CD, 6 days) of the same molecule?
Answer: 0.143 log 2 fold change

Question: What about the Z.LYZ.NS (ISC-enriched organoids [3]; [12]) of the same molecule?
Answer: 1.243

Question: And the Dose.FC.LYZ.NS (ISC-enriched organoids [3]; Dose 0.40 uM, ENR+CD, 6 days)?
Answer: −0.120 log 2 fold change

Question: And the Z.LYZ.NS (ISC-enriched organoids [3]; [13])?
Answer: −1.047

Question: And the Dose.FC.LYZ.NS (ISC-enriched organoids [3]; Dose 2.00 uM, ENR+CD, 6 days)?
Answer: −0.182 log 2 fold change

Question: And the Z.LYZ.NS (ISC-enriched organoids [3]; [14])?
Answer: −1.585

Question: And the Dose.FC.LYZ.NS (ISC-enriched organoids [3]; Dose 10.00 uM, ENR+CD, 6 days)?
Answer: −0.288 log 2 fold change

Question: What about the Z.LYZ.NS (ISC-enriched organoids [3]; [15]) of the same molecule?
Answer: −2.506
